Measured values as given in ChEMBL document CHEMBL1201862, “PubChem BioAssay data set” (2004).
Several values for one entry are separate records, joined by “and”; a condition that tells them apart may be missing. Equal values may be shown once. Activity calls are given as the source filed them.

How the values were obtained:
Prothrombin = Prothrombin (Homo sapiens, UniProt P00734); experiment: Thrombin 1536 HTS Dose Response Confirmation. [Related pubchem assays: 1046 (Thrombin 1536 HTS; hits were confirmed in this assay)]; type: functional
[1] = biological target: Induced myeloid leukemia cell differentiation protein Mcl-1 (Homo sapiens, UniProt Q07820); type: functional
Bcl-2-related protein A1 [2] = biological target: T1, Bcl-2-related protein A1 (Mus musculus, UniProt Q07440); experiment: displacement of Bid BH3 peptide from Bfl-1 – biochemical, fluorescence polarization, FITC-Bid, mouse, primary screen (AID 432)
T1 sequence (Q07440 whole entry): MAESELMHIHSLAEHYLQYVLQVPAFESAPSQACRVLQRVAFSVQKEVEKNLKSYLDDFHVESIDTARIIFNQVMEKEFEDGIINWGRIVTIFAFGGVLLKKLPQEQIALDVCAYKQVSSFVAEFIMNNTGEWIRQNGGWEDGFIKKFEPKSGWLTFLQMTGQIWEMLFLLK

[3] = biological target: Glyceraldehyde-3-phosphate dehydrogenase (Homo sapiens, UniProt P04406)
[4] = HPDE-C7 pancreatic duct cell viability loss – fluorescence, HTS (AID 430); type: functional, cell-based; conditions: Homo sapiens
Bcl-2-related protein A1 [5] = biological target: T1, Bcl-2-related protein A1; experiment: small-molecule antagonists of Bfl-1/BH3 interaction – biochemical, TR-FRET, mouse Bfl-1, confirmation (AID 621);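 further: TR-FRET binding of GST-Bfl-1 to FITC-labelled Bid peptide via terbium antibody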
[6] = viability loss of HPDE-C7K cells – cell-based, fluorescence, HTS, primary screen (AID 431); type: functional; conditions: Homo sapiens
Bcl-2-related protein A1 [7] = biological target: T1, Bcl-2-related protein A1; experiment: Bfl-1 binding inhibitors, SAR follow-up, biochemical, fluorescence polarization (AID 1070)
CHO = CHO cell viability loss, potency – luminescence, cytotoxicity control for TLR9-MyD88 binding inhibitor project, dose response (AID 588339); type: functional, cell-based, hamster; conditions: Cricetulus griseus;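 further: CHO cells stably coexpressing TLR9 and MyD88 fusions from primary screen; compound exposure lasted 48 hours before viability readout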
[8] = biological target: T2, Replicative DNA helicase DnaB (Mycobacterium tuberculosis, UniProt P9WMR3); experiment: DnaB intein splicing inhibitors, dose response, biochemical, cell-free fluorescence (AID 449749); type: functional
T2 sequence (P9WMR3 whole entry): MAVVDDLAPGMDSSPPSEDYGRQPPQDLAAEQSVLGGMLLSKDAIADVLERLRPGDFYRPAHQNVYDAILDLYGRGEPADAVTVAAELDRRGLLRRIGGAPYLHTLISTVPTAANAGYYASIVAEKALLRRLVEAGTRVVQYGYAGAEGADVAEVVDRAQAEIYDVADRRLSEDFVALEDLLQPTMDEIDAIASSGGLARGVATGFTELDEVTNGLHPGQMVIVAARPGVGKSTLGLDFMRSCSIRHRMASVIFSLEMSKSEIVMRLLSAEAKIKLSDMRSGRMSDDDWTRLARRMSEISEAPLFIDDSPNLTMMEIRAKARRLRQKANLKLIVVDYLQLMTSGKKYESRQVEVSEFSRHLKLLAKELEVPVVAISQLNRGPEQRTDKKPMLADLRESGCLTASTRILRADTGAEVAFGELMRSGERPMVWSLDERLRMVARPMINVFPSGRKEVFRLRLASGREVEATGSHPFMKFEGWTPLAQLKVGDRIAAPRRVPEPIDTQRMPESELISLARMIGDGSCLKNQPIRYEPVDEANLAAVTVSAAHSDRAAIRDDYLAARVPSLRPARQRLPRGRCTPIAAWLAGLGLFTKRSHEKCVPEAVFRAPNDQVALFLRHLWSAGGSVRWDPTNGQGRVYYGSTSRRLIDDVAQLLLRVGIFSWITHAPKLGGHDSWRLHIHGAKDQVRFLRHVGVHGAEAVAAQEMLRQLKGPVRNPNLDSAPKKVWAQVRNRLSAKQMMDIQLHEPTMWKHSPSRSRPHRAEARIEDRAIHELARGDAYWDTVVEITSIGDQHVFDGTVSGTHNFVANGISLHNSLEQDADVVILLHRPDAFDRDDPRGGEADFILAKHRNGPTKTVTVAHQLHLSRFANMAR

Protein RecA = biological target: T3, Protein RecA (Mycobacterium tuberculosis, UniProt P9WHJ3); experiment: Fluorescence Cell-Free Homogeneous Dose Retest to Identify Inhibitors of RecA-Intein Splicing Activity. [Related pubchem assays (depositor defined):AID2097, AID2223, AID489010, AID492950]; type: functional
T3 sequence (P9WHJ3 whole entry): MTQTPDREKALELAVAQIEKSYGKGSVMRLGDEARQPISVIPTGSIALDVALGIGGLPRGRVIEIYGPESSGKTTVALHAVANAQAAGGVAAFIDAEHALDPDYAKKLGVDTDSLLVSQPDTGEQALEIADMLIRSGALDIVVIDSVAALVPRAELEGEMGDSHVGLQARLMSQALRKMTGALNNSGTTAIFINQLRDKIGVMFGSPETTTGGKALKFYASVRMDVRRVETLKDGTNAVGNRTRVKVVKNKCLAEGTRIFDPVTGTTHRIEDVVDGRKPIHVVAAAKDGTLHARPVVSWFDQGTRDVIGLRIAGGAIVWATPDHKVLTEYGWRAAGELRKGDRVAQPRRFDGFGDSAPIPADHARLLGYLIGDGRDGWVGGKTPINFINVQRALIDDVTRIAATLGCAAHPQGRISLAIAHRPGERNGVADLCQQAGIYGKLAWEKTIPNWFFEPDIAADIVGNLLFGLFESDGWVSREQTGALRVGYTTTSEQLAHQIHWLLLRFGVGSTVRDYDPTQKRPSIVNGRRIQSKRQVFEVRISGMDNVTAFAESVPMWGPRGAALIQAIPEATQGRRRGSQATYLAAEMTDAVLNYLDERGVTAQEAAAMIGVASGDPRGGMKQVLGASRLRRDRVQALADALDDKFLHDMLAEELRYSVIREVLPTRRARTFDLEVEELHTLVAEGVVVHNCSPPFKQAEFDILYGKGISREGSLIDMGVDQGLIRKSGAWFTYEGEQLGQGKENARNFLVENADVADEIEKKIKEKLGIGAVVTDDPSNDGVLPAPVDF

Beta Lactamase = Beta Lactamase (Pseudomonas aeruginosa, UniProt Q932Y6); experiment: BLA reporter interference, concentration series – BLA reporter cells, FRET fluorescence, artefact control for TLR9-MyD88 binding inhibitor project, dose response (AID 588341); type: cell-based;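 further: cell based assay in CHO-K1 cells stably expressing beta-lactamase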
[9] = reduction of Shn3 3'UTR-driven luciferase in osteoblasts – cell-based, Clone20 osteoblasts, firefly luciferase, cherry-picked, dose response (AID 624132); type: functional;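 further: firefly luciferase luminescence from reporter carrying the Shn3 3'UTR in osteoblasts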
[10] = loss of viability in HepG2 cells – cell-based, CellTiter-Glo, cherry-picked, cytotoxicity control for Shn3 inhibitor project, dose response (AID 624134); type: functional
[11] = non-specific 3'UTR reporter inhibition in Clone20-Shn3RL – cell-based, Renilla luciferase, cherry-picked, counter-screen for Shn3 inhibitor project, dose response (AID 624133); type: functional
Mucolipin-3 [12] = biological target: T4, Mucolipin-3 (Homo sapiens, UniProt Q8TDD5); experiment: human mucolipin-3 activators, concentration-response – cell-based, calcium fluorescence, dose response (AID 2510); type: functional
T4 sequence (Q8TDD5 whole entry): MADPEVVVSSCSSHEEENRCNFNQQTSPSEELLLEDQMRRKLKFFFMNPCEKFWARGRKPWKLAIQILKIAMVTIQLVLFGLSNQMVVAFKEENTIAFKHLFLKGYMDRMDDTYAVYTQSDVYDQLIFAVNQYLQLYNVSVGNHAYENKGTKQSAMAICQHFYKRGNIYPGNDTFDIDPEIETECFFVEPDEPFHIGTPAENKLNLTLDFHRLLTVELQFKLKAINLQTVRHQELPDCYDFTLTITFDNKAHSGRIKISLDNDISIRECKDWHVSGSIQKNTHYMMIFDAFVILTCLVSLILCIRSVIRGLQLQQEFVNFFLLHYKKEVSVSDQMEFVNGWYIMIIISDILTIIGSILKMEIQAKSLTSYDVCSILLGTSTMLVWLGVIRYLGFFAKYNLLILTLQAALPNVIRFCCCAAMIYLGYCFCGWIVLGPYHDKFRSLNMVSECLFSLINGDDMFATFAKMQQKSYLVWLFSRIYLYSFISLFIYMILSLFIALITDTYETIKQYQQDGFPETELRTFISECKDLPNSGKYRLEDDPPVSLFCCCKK

Mucolipin-3 [13] = biological target: T4, Mucolipin-3; experiment: Dose response cell-based high-throughput screening assay for agonists of the transient receptor potential channel ML3 (TRPML3). [Related pubchem assays: 1526, 1424, 1448 ]; type: functional
Ion channel NompC [14] = biological target: T5, Ion channel NompC (Danio rerio, UniProt Q7T1G6); experiment: Late stage counterscreen for the probe development effort to identify selective agonists of the Transient Receptor Potential Channels 3 (TRPML3): fluorescence-based cell-based dose response assay for TRPN1 agonists.; type: functional
Ion channel NompC [15] = biological target: T5, Ion channel NompC; experiment: Fluorescence counterscreen assay for TRPML3 agonists: dose response cell-based high-throughput screening assay to identify agonists of the transient receptor potential channel N1 (TRPN1). [Related pubchem assays: 1526, 1424, 1448 ]; type: functional
Leucine aminopeptidase = biological target: T6, Leucine aminopeptidase (Plasmodium falciparum 3D7, UniProt Q8IL11); experiment: P. falciparum M17LAP inhibitors, primary screen, biochemical, fluorogenic H-Leu-NHMec substrate, 1536-well (AID 1619); type: functional
T6 sequence (Q8IL11 whole entry): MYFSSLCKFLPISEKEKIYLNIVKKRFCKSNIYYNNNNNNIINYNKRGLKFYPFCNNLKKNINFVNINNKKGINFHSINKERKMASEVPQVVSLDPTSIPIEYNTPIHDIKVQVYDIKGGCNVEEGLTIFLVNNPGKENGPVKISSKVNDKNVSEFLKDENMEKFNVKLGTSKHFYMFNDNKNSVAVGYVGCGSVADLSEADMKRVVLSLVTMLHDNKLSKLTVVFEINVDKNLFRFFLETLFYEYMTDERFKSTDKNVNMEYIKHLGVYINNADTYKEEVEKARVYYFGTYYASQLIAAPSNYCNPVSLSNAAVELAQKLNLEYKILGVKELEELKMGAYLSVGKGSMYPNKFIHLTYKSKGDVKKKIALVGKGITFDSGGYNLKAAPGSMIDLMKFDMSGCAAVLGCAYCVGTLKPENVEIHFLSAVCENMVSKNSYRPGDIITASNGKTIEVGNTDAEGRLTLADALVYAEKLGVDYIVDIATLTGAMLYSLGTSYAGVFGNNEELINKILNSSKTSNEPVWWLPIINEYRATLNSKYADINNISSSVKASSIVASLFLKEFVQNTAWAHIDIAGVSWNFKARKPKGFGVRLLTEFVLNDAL

Aspartyl aminopeptidase = Aspartyl aminopeptidase (Plasmodium falciparum 3D7, UniProt Q8I2J3); experiment: Counterscreen for inhibitors of M1 and M17 aminopeptidases: QFRET-based biochemical high throughput dose response assay for inhibitors of the Plasmodium falciparum M18 Aspartyl Aminopeptidase (PFM18AAP). [Related PubChem assays: 1619 (Screening assay (M17LAP inhibitors).), 1445 (Screening assay (M1AAP inhibitors).)]
Procathepsin L = Procathepsin L (Homo sapiens, UniProt P07711); experiment: CTSL1 protease inhibition – biochemical, QFRET, 1536-well, counter-screen for M1/M17 aminopeptidase inhibitor project, dose response (AID 2214)
[16] = biological target: T7, Heat shock factor protein 1 (Mus musculus, UniProt P38532); experiment: enhancement of HSF1-driven luciferase signal – cell-based, NIH3T3, luminescence, dose retest, confirmation (AID 435004); type: functional;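 further: stress induced by proteasome inhibitor MG132 added 30 min after compound; luciferase reporter driven by HSF1 response element in NIH3T3 cells; actives raise luminescence as potentiators of the MG132 stress response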
T7 sequence (P38532 whole entry): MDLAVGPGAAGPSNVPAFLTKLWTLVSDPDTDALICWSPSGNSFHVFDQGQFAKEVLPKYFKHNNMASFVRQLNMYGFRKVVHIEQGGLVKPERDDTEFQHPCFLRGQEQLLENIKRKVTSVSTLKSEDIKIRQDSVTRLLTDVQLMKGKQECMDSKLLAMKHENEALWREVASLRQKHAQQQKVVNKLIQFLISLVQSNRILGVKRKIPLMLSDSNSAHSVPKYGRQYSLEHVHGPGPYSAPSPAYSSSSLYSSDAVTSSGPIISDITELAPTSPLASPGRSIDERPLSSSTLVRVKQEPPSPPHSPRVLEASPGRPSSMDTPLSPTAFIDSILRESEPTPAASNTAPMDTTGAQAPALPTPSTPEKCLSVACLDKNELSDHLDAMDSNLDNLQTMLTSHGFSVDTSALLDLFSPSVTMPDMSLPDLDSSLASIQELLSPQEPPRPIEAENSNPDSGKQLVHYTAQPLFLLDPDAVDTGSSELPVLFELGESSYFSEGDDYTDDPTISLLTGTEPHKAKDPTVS

T5 sequence (Q7T1G6 whole entry): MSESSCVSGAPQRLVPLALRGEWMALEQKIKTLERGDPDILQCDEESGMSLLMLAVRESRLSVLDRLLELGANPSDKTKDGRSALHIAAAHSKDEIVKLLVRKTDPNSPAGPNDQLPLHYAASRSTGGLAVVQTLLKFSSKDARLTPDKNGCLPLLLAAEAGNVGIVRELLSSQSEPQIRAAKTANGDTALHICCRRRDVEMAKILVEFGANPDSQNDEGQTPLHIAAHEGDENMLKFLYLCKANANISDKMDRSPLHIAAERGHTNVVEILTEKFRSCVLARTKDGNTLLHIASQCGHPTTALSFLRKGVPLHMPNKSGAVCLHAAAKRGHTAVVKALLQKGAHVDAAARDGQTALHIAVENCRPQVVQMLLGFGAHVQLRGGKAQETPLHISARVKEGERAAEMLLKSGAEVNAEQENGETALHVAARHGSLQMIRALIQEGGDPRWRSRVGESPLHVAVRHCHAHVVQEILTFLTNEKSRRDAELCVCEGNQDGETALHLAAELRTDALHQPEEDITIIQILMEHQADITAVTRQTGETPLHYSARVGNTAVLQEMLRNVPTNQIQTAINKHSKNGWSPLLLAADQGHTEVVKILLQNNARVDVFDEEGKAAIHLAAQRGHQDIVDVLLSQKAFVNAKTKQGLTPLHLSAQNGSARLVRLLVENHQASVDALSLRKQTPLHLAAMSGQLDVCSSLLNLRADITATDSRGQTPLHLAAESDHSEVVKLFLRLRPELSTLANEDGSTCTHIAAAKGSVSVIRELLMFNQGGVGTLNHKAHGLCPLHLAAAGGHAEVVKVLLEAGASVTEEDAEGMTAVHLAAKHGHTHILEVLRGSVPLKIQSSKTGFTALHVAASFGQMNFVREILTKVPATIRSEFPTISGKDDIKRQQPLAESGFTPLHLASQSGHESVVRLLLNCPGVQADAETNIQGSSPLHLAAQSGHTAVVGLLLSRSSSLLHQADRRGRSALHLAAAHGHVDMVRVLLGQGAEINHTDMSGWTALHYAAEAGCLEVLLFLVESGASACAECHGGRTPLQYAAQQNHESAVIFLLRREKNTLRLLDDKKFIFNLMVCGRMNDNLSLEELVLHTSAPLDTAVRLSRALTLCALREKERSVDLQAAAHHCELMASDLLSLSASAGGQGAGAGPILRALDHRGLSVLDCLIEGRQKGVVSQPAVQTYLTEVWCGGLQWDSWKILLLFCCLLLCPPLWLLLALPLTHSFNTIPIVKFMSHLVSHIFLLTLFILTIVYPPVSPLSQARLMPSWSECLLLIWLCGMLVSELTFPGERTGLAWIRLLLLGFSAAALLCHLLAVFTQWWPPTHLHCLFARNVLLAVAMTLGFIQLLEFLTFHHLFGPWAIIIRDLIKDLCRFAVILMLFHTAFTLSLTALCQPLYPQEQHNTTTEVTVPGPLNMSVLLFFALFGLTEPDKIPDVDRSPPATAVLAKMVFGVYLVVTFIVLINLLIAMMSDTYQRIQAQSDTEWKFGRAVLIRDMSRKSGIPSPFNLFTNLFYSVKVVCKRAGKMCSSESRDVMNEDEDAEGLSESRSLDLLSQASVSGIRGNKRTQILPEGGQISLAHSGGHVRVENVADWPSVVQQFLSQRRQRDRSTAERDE
Induced myeloid leukemia cell differentiation protein Mcl-1, sequence (Q07820 whole entry): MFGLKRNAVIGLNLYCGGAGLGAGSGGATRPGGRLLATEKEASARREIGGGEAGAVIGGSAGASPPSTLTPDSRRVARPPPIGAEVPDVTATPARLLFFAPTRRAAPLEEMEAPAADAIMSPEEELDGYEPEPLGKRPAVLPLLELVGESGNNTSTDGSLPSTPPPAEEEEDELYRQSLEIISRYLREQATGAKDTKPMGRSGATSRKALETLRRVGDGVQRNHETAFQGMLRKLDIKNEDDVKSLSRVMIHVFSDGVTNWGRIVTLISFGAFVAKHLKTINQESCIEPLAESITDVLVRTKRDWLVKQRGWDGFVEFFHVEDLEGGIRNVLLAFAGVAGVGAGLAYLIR
Glyceraldehyde-3-phosphate dehydrogenase, sequence (P04406 whole entry): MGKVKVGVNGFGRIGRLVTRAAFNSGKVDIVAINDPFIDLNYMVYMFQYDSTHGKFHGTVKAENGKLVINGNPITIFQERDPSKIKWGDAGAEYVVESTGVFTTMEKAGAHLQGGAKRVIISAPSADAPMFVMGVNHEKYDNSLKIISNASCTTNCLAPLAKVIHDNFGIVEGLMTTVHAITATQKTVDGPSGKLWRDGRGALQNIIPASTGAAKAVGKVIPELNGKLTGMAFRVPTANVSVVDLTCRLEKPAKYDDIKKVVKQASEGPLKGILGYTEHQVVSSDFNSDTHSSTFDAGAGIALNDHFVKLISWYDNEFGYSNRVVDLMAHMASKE
Aspartyl aminopeptidase, sequence (Q8I2J3 whole entry): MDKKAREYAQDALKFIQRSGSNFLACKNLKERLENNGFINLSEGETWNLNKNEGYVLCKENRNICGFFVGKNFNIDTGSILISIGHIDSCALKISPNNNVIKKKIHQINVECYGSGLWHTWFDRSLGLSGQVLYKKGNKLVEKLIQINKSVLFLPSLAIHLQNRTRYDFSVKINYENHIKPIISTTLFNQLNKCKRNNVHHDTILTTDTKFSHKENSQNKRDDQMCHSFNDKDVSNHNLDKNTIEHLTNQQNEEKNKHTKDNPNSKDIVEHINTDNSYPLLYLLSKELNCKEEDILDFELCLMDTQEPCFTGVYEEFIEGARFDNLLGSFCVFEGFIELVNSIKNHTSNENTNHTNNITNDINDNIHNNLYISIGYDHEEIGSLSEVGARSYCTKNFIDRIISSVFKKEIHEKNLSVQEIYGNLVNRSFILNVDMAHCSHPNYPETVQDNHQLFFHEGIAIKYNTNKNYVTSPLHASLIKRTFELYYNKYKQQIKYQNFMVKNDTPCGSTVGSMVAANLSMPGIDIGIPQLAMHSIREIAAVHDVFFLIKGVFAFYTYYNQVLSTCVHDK
Beta Lactamase, sequence (Q932Y6 whole entry): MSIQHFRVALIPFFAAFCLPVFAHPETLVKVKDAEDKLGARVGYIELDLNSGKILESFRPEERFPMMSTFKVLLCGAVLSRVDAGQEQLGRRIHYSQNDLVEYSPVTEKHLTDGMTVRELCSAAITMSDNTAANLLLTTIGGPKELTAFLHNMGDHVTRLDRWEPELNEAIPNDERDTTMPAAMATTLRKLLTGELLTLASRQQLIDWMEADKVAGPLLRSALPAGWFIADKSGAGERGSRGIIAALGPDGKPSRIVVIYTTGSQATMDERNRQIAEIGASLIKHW
Procathepsin L, sequence (P07711 whole entry): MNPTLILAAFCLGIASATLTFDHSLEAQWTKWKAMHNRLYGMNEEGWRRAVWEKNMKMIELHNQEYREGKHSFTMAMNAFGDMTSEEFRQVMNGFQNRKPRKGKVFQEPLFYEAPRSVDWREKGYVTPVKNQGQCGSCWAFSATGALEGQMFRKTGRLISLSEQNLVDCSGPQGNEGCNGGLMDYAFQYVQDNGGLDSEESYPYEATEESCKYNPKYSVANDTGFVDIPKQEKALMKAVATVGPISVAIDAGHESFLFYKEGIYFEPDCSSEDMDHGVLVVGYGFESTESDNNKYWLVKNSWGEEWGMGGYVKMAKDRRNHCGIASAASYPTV

O=[N+]([O-])c1ccc(-c2cc(O)n3nc(-c4ccc(Cl)cc4)cc3n2)cc1
IC50 (Prothrombin): > 50 µM (not active)
IC50 [1]: 1.72 µM (active)

CCOC(=O)CS(=O)(=O)c1nc(-c2ccc(F)cc2)cc(C(F)(F)F)n1
IC50 (Bcl-2-related protein A1 [2]): 3.78 µM (active)
IC50 [3]: > 100 µM (not active)
EC50 [4]: 9.29 µM (active)
IC50 (Bcl-2-related protein A1 [5]): 3.41 µM (active) and 1.46 µM (active)
EC50 [6]: 6.05 µM (active)
IC50 (Bcl-2-related protein A1 [7]): 2.16 µM (active)
IC50 (CHO): 2.88 µM (active)
AC50 [8]: 3.35 µM (active)
EC50 (Protein RecA): 3.3 µM (active)
IC50 (Beta Lactamase): 14.4 µM (inactive)
AC50 [9]: 1.78 µM (active)
AC50 [10]: 20.9 µM (active)
AC50 [11]: 6.97 µM (active)

Cc1ccc(S(=O)(=O)n2nccc2-c2c(-c3ccccc3)noc2C)cc1
EC50 (Mucolipin-3 [12]): 1.01 µM (active)
EC50 (Mucolipin-3 [13]): 0.819 µM (active)
EC50 (Ion channel NompC [14]): > 29.9 µM (not active)
EC50 (Ion channel NompC [15]): > 29.9 µM (not active)

Oc1cc(-c2ccc(Cl)c(Cl)c2)[nH]n1
IC50 (Leucine aminopeptidase): < 1 µM (active)
IC50 (Aspartyl aminopeptidase): > 73.5 µM (not active)
IC50 (Procathepsin L): > 59.6 µM (not active)
EC50 [16]: > 260 µM (inactive)
AC50 [8]: 2.01 µM (active)
EC50 (Protein RecA): 0.852 µM (active)
